The experiment has as its target endogenous wild-type p53 protein (Homo sapiens, UniProt P04637). The experiment in a line: Degradation of endogenous wild-type p53 protein in HCT116 cells, Western blot analysis. Type of experiment: cell-based. The arrangement: an endogenous wild-type p53 protein and MDM2 protein in HCT116 cells (human large intestine cancer cells); endogenous in cells; host or cells: HCT116 cells. Conditions: 48 hours after addition. As for the experimental part:
HCT116 cells were seeded in a 24-well plate at a cell density of 8×10^4 cells/well, and then cultured under conditions of 37° C. and 5 vol % CO2 for 16 hours.
After 16 hours from cell seeding, TIBC-CANDDY_MLN or TIBC was added to HCT116 cells as follows. As a medium, a serum-free medium (37° C.) in which 1 mass % L-glutamine solution (Sigma-Aldrich) was added to D-MEM (high D-glucose, phenol red, sodium pyruvate (Wako Pure Chemical Industries, Ltd.)) was used. It is noted that the L-glutamine solution was added immediately before use. A DMSO solution containing TIBC-CANDDY_MLN or TIBC was mixed with the medium so that the concentration of DMSO was 1 vol %, and added to each well at 500 μL/well, and cultured under conditions of 37° C. and 5 vol % CO2. As a control, DMSO was used.
The medium was removed 48 hours after addition of TIBC-CANDDY_MLN or TIBC, and then PBS was added to wash the cells. […]
After electrophoresis, proteins were transferred to a PVDF membrane (Immobion™-P, Millipore) under conditions of 100 V and 2 hours using a tank-type blotting device and a transfer buffer (25 mM Tris-HCl, 195 mM glycine, 0.01% SDS, 15% methanol). […] Subsequently, the membrane was treated with a chemiluminescence reagent Immobilon™ Western (Millipore), and then chemiluminescence was detected using a lumino image analyzer LAS-3000 (FUJIFILM Corporation).

Molecules are shown by their SMILES.

The source of these data is US20190369111A1, “MOLECULAR KINETICS EVALUATION METHOD AND SCREENING METHOD” (Tokyo University of Science Foundation, priority 2016, published 2019).

endogenous wild-type p53 protein, sequence (P04637 whole entry): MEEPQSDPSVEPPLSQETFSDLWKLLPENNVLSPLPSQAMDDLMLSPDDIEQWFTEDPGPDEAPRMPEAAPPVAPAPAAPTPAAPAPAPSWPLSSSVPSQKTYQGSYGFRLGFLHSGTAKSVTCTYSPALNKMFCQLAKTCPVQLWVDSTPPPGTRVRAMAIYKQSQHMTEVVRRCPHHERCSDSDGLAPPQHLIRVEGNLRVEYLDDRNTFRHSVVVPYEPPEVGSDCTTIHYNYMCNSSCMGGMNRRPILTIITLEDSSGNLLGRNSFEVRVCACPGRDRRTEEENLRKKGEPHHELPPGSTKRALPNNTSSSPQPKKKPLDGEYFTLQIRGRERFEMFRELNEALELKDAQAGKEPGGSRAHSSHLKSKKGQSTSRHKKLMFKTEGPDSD

Turning to `CC(C)C[C@H](NC(=O)CNC(=O)c1cc(Cl)ccc1Cl)C(=O)NCCCCCCC(=O)Nc1ccc(C(=O)/C=C/c2ccc(I)cc2)cc1` [TIBC-CANDDY_MLN], the “amount of endogenous wild-type p53 protein” value was “reduced”.
